Columns and labels:
[1] = test system: CLL; settings: mouse, in vivo; cited from earlier work
[2] = test system: WaC3 cells; settings: cited from earlier work
[3] = test system: Arg-1 in CD11b+/Ly6G+ granulocytic MDSCs; assay: Arg-1 expression in granulocytic MDSCs of treated mice; assay type: in vivo, mouse; settings: spleens of injected MD4+/−/Eμ-TCL1+/+ mice
[4] = test system: XBP-1s expression, 5TGM1 cells; assay: XBP-1s immunoblot in 5TGM1 multiple myeloma cells; assay type: cell-based, mouse
Procedure: 5TGM1 mouse multiple myeloma cells, primary mouse B cells, primary mouse Eμ-TCL1 CLL cells, and human CLL cell lines (MEC2 and WaC3) were cultured at 37° C. in a 5% CO2 incubator using RPMI 1640 media (Gibco) supplemented with 10% heat-inactivated FBS, 2 mM L-glutamine, 100 U/mL penicillin G sodium, 1 mM sodium pyruvate, 0.1 mM non-essential amino acids, 100 μg/mL streptomycin sulfate and 0.1 mM β-mercaptoethanol (β-ME).
Cells were lysed using RIPA buffer (10 mM Tris-HCl, pH 7.4, 150 mM NaCl, 1% NP-40, 0.5% sodium deoxycholate, 0.1% SDS, and 1 mM EDTA) supplemented with protease inhibitors (Roche). Protein concentrations were determined by BCA assays (Pierce).
Samples were boiled in SDS-PAGE sample buffer (62.5 mM Tris-HCl, pH 6.8, 2% SDS, 10% glycerol, 0.1% bromophenol blue) with β-ME and analyzed by SDS-PAGE. Proteins were transferred to nitrocellulose membranes, blocked in 5% nonfat milk (wt/vol in PBS), and immunoblotted with indicated primary antibodies and appropriate horseradish peroxidase-conjugated secondary antibodies. Immunoblots were developed using Western Lighting Chemiluminescence Reagent (PerkinElmer).
To develop inhibitors with improved potency to target the IRE1/XBP-1 pathway, tricyclic chromenone-based IRE1 RNase inhibitors with different amine group (R^1) were synthesized and compared: allyloxycarbonyl (alloc) in B-H09 (1), —H in C-B06 (2), and —CH3 in C-D06 (3) (FIG. 1A). 5TGM1 multiple myeloma cells were chosen to evaluate inhibitory effects of these inhibitors because they have constitutively activated IRE1/XBP-1 pathways.

O=c1oc2c(C3OCCCO3)c(O)ccc2c2c1CNCC2 [Compound 4, 7-(1,3-dioxan-2-yl)-8-hydroxy-1,2,3,4-tetrahydro-5H-chromeno[3,4-c]pyridin-5-one]
growth of CLL [1]: retard the growth of CLL | sensitivity of WaC3 cells [2]: sensitive | Arg-1 levels in granulocytic MDSCs versus DMSO-injected mice [3]: expressed decreased levels of Arg-1 | suppression of XBP-1s expression, long term ([4]; 10 μM for a course of 3 days): continuously suppressed even after 3-day treatment | concentration that effectively blocks XBP-1s expression ([4]; 24 h): 5 µM | suppression of XBP-1s expression ([4]; 24 h, at 5 μM): more potent than 5
